Tested on: Phospho-Rb (Ser807/811) in MCF7 cells
Assay: Phospho-Rb expression inhibition in MCF7 cells quantified by in cell Western
Type: cell-based, human
Settings: 24 h incubation, in cell Western, read-out: MCF7, pRb (Ser807/811), IC50
Outline: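 MCF7 cells were seeded at 20,000/well, grown overnight, then treated 24 h at 37 °C with compound dilutions (0.1% DMSO from 1000× stocks). Fixed cells were co-stained for phospho-Rb Ser807/811 and total Rb. Near-infrared dual-channel in-cell Western imaging was the read-out.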

| Compound | IC50 [nM] |
| --- | --- |
| CC(C)n1c(C(C)(C)O)nc2c(F)cc(-c3nc(N[C@@H]4CCOC[C@H]4O)ncc3Cl)cc21 [Reference Compound, PF-07220060, reference compound] | 65.2 |

Same assay, conditions: Homo sapiens, MCF7, 24 h, 24 hours, in cell Western, read-out: MCF7 pRb IC50

| IC50 [nM] | Compound |
| --- | --- |
| ≤ 40 | CC(C)n1c([C@@H]2CCOC2)nc2c(F)cc(-c3nc(N[C@@H]4C[C@H]5CO[C@H](O5)[C@H]4O)ncc3Cl)cc21 [Compound 268, (1S,3R,4S,5R)-3-((5-chloro-4-(4-fluoro-1-isopropyl-2-((S)-tetrahydrofuran-3-yl)-1H-benzo[d]imidazol-6-yl)pyrimidin-2-yl)amino)-6,8-dioxabicyclo[3.2.1]octan-4-ol] |
| 40 to 150 | CC(C)n1c([C@H]2CCOC2)nc2c(F)cc(-c3nc(N[C@@H]4C[C@H]5CO[C@H](O5)[C@H]4O)ncc3F)cc21 [Compound 269, (1S,3R,4S,5R)-3-((5-fluoro-4-(4-fluoro-1-isopropyl-2-((R)-tetrahydrofuran-3-yl)-1H-benzo[d]imidazol-6-yl)pyrimidin-2-yl)amino)-6,8-dioxabicyclo[3.2.1]octan-4-ol] |
| 40 to 150 | CC(C)n1c([C@@H]2CCOC2)nc2c(F)cc(-c3nc(N[C@@H]4C[C@H]5CO[C@H](O5)[C@H]4O)ncc3F)cc21 [Compound 270, (1S,3R,4S,5R)-3-((5-fluoro-4-(4-fluoro-1-isopropyl-2-((S)-tetrahydrofuran-3-yl)-1H-benzo[d]imidazol-6-yl)pyrimidin-2-yl)amino)-6,8-dioxabicyclo[3.2.1]octan-4-ol] |
| 40 to 150 | Cc1c(-c2nc(N[C@@H]3C[C@H]4CO[C@H](O4)[C@H]3O)ncc2Cl)sc2c(Cl)c(C(C)(C)O)cnc12 [Compound 275, (1S,3R,4S,5R)-3-((5-chloro-4-(7-chloro-6-(2-hydroxypropan-2-yl)-3-methylthieno[3,2-b]pyridin-2-yl)pyrimidin-2-yl)amino)-6,8-dioxabicyclo[3.2.1]octan-4-ol] |
| ≤ 40 | Cc1c(-c2nc(N[C@@H]3C[C@H]4CO[C@H](O4)[C@H]3O)ncc2F)sc2c(Cl)c(C(C)(C)O)cnc12 [Compound 276, (1S,3R,4S,5R)-3-((4-(7-chloro-6-(2-hydroxypropan-2-yl)-3-methylthieno[3,2-b]pyridin-2-yl)-5-fluoropyrimidin-2-yl)amino)-6,8-dioxabicyclo[3.2.1]octan-4-ol] |
| ≤ 40 | Cc1c(-c2nc(N[C@@H]3C[C@H]4CO[C@H](O4)[C@H]3O)ncc2Cl)sc2c(C)c(C(C)(C)O)cnc12 [Compound 277, (1S,3R,4S,5R)-3-((5-chloro-4-(6-(2-hydroxypropan-2-yl)-3,7-dimethylthieno[3,2-b]pyridin-2-yl)pyrimidin-2-yl)amino)-6,8-dioxabicyclo[3.2.1]octan-4-ol] |
| ≤ 40 | Cc1c(CN2CC[C@H](F)C2)n(C(C)C)c2cc(-c3nc(N[C@@H]4C[C@H]5CO[C@H](O5)[C@H]4O)ncc3F)ccc2c1=O [Compound 293, 7-(5-fluoro-2-(((1S,3R,4S,5R)-4-hydroxy-6,8-dioxabicyclo[3.2.1]octan-3-yl)amino)pyrimidin-4-yl)-2-(((S)-3-fluoropyrrolidin-1-yl)methyl)-1-isopropyl-3-methylquinolin-4(1H)-one] |
| 150 to 1000 | CC(C)n1c(N2C(=O)OC[C@@H]2C)nc2c(F)cc(-c3nc(N[C@@H]4C[C@H]5CO[C@H](O5)[C@H]4O)ncc3Cl)cc21 [Compound 298, (S)-3-(6-(5-chloro-2-(((1S,3R,4S,5R)-4-hydroxy-6,8-dioxabicyclo[3.2.1]octan-3-yl)amino)pyrimidin-4-yl)-4-fluoro-1-isopropyl-1H-benzo[d]imidazol-2-yl)-4-methyloxazolidin-2-one] |
